Paper PMC6376154 (International Journal for Parasitology: Drugs and Drug …, 2019)
Like-named read-outs stand apart in the source and are kept apart here.

Assays:
[1] = test system: P. falciparum 3D7 asexual blood stage; details: cited from earlier work
[2] = test system: F100TpM, a bovine lymphocyte cell line infected by T. parva; experiment: 3H-thymidine incorporation growth assay on F100TpM cells (screen at 1 μM and IC50 titration);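 note: growth inhibition compared against wells lacking compound, run in triplicate, and CC50 derived from 3H-thymidine uptake by PBMC stimulated with ConA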; details: read-out: IC50 (μM) F100TpM; T. parva infected lymphocyte cell line, 48 h compound, 3H-thymidine incorporation
Procedure: All the MMV compounds were initially tested for inhibitory activity on the growth of F100TpM, a bovine lymphocyte cell line infected by T. parva. […] All compounds were tested in triplicate.
The radiolabeled precursor ^3H-thymidine is incorporated into DNA strands during cell replication and radioisotope incorporation is often used as a measure of cell proliferation.
IC50 values were calculated using the Graph Pad Prism 7 software (GraphPad Software, Inc., La Jolla, CA), and average values of radio-isotope incorporation in wells with and without compound on the growth of F100TpM cells. The CC50 values were calculated using ^3H-thymidine incorporation values determined on the growth of PBMC stimulated with ConA. The therapeutic index of a compound was calculated by dividing the CC50 value with the IC50 value.

[3] = MMV Malaria Box data sheet, ref MMV data sheets
[4] = MMV Malaria Box data sheet, ref MMV data sheets, read-out: EC50_nM
[5] = source GNF, ref ChEMBL_NTD, read-out: CHEMBL EC50
[6] = ChEMBL-NTD value per source (GNF, GSK, StJude), several values in a cell follow the order of the sources, read-out: CHEMBL EC50
[7] = MMV Malaria Box sheet, ref MMV data sheets
[8] = MMV Malaria Box sheet, ref MMV data sheets, read-out: EC50_nM
[9] = source GSK, ref ChEMBL_NTD, read-out: CHEMBL EC50
[10] = MMV Malaria Box data sheet (supplement mmc2.xls), ref MMV data sheet
[11] = MMV Malaria Box data sheet (supplement mmc2.xls), ref MMV data sheet, read-out: EC50_nM
[12] = value(s) per source (GSK, GNF, StJude), separated by semicolon, ref ChEMBL-NTD, read-out: CHEMBL EC50
[13] = source StJude, ref ChEMBL_NTD, read-out: CHEMBL EC50

## Cc1ccc(-c2cc3c(nn2)-c2ccccc2C3=O)cc1 [MMV666021]
[1]; [3]
  percent_inh @ 5 uM: 99%
[1]; [4]
  EC50: 0.0944 µM
[1]; [5]
  EC50: 2 µM

## COc1ccc(C(=O)NC(c2ccccc2Cl)c2cc(Cl)c3cccnc3c2O)cc1 (stereo not shown) [MMV666022]
[1]; [6]
  EC50: 2.37 µM

## c1ccc(Cn2c(N=Nc3c(Nc4ccccc4)ccc4ccccc34)nc3ccccc32)cc1 [MMV666023]
[1]; [3]
  percent_inh @ 5 uM: 96%
[1]; [4]
  EC50: 0.0368 µM
[1]; [5]
  EC50: 2.73 µM

## OC(Cn1nnc2ccccc21)Cn1c2ccc(Br)cc2c2cc(Br)ccc21 (stereo not shown) [MMV666025]
[1]; [6]
  EC50: 3.37 µM

## COc1ccc(-c2cc3c(nn2)-c2ccccc2C3=O)cc1 [MMV666026]
[1]; [6]
  EC50: 3.84 µM

## COc1ccc(C(=O)NC(c2ccc(Cl)cc2Cl)c2cc(Cl)c3cccnc3c2O)cc1 (stereo not shown) [MMV666054]
[1]; [7]
  percent_inh @ 5 uM: 96%
[1]; [8]
  EC50: 0.513 µM
[1]; [9]
  EC50: 0.499 µM

## O=C(Nc1ccc(Cl)cc1C(=O)Nc1ccncc1)c1ccc(Cl)cc1Cl [MMV666057]
[1]; [3]
  percent_inh @ 5 uM: 94%
[1]; [9]
  EC50: 0.611 µM

## COc1ccc(CN2CCCC(C(=O)c3ccc(C(F)(F)F)cc3)C2)c(O)c1 (stereo not shown) [MMV666060]
[1]; [6]
  EC50: 0.849 µM

## COc1cccc(O)c1CN1CCC2(CCCN(Cc3ccc(F)cc3)C2)C1 (stereo not shown) [MMV666061]
[1]; [10]
  percent_inh @ 5 uM: 95%
[1]; [11]
  EC50: 0.53 µM
[1]; [12]
  EC50: 0.865 µM

## Cc1ccc(N2C(=O)C3C(C2=O)C2(c4ccccc4)C(=O)C3(c3ccccc3)C(c3ccccc3)=C2c2ccccc2)cc1 (stereo not shown) [MMV666062]
[1]; [3]
  percent_inh @ 5 uM: 98%
[1]; [4]
  EC50: 0.282 µM
[1]; [9]
  EC50: 0.869 µM

## COc1ccc(CNC2CCN(c3ccc(NC(=O)c4cccc(Cl)c4)cc3)CC2)cc1OC [MMV666067]
[1]; [10]
  percent_inh @ 5 uM: 97%
[1]; [11]
  EC50: 0.663 µM
[1]; [12]
  EC50: 1.02 µM

## COc1ccc(CCN2CCC(CN(C)Cc3cnn(-c4ccccc4)c3)CC2)cc1 [MMV666069]
[1]; [10]
  percent_inh @ 5 uM: 96%
[1]; [11]
  EC50: 1.43 µM
[1]; [12]
  EC50: 1.16 µM

## O=C(NC1CCCC1)c1ccc(N2CCC(NCc3cccc(C(F)(F)F)c3)CC2)cc1 [MMV666070]
[1]; [10]
  percent_inh @ 5 uM: 93%
[1]; [12]
  EC50: 1.33 µM

## Cc1ccc(CN2CCC(C(=O)Nc3ccc(-c4cc5ccccc5[nH]4)cc3)CC2)o1 [MMV666071]
[1]; [10]
  percent_inh @ 5 uM: 77%
[1]; [12]
  EC50: 1.42 µM

## COCCNC(=O)c1ccc(OC2CCN(Cc3ccc(F)c(F)c3)CC2)c(Cl)c1 [MMV666072]
[1]; [3]
  percent_inh @ 5 uM: 91%
[1]; [9]
  EC50: 1.49 µM

## COc1ccc(C2N(C)c3ccccc3N2C)cc1 [MMV666075]
[1]; [10]
  percent_inh @ 5 uM: 62%
[1]; [12]
  EC50: 15 µM

## Cc1ccc2cc3c(N)c4c(C)ccc(C)c4nc3nc2c1 [MMV666079]
[1]; [7]
  percent_inh @ 5 uM: 98%
[1]; [8]
  EC50: 1.31 µM
[1]; [5]
  EC50: 0.431 µM

## O=C(NC(c1ccccc1)c1ccc2cccnc2c1O)c1ccccc1 (stereo not shown) [MMV666080]
[1]; [10]
  percent_inh @ 5 uM: 95%
[1]; [11]
  EC50: 1.17 µM

## CCCc1c(C)nc2ccccc2c1O [MMV666081]
[1]; [10]
  percent_inh @ 5 uM: 88%
[1]; [12]
  EC50: 0.63 µM

## CCCC(c1nnnn1C1CCCCC1)N1CCN(C(=O)c2ccco2)CC1 (stereo not shown) [MMV666093]
[1]; [10]
  percent_inh @ 5 uM: 82%
[1]; [12]
  EC50: 1.33 µM

## CCCc1c(C)nc2ccc(Br)cc2c1O [MMV666095]
[1]; [7]
  percent_inh @ 5 uM: 64%
[1]; [8]
  EC50: 1.19 µM
[1]; [5]
  EC50: 1.51 µM

## COc1ccc(C2=C(c3ccc(OC)cc3)C3(c4ccccc4)C(=O)C2(c2ccccc2)C2C(=O)N(c4ccc(C)cc4)C(=O)C23)cc1 (stereo not shown) [MMV666101]
[1]; [3]
  percent_inh @ 5 uM: 98%
[1]; [4]
  EC50: 0.148 µM
[1]; [5]
  EC50: 12.5 µM

## CN(C)c1ccc(-c2nc3cc(N)ccc3[nH]2)cc1 [MMV666102]
[1]; [10]
  percent_inh @ 5 uM: 64%
[1]; [12]
  EC50: 0.239 µM

## CCn1c(SCC(=O)Nc2cc(C(F)(F)F)ccc2Cl)nc2ccccc2c1=O [MMV666103]
[1]; [3]
  percent_inh @ 5 uM: 91%
[1]; [4]
  EC50: 1 µM
[1]; [9]
  EC50: 0.397 µM

## COCCN(C(=O)Cc1cccs1)C(C(=O)NCc1ccc(OC)cc1)c1ccc(C(C)C)cc1 (stereo not shown) [MMV666105]
[1]; [3]
  percent_inh @ 5 uM: 92%
[1]; [4]
  EC50: 1.19 µM
[1]; [9]
  EC50: 0.845 µM

## O=C(NC1CCCCC1)C(c1cccs1)N(CCc1ccccc1)C(=O)c1ccco1 (stereo not shown) [MMV666106]
[1]; [6]
  EC50: 1.04 µM

## O=C(CCc1ccco1)NC1CCN(CC2(c3ccc(Cl)cc3)CCC2)CC1 [MMV666108]
[1]; [10]
  percent_inh @ 5 uM: 96%
[1]; [11]
  EC50: 1.14 µM
[1]; [12]
  EC50: 1.45 µM

## CCOC(=O)C1(Cc2ccccc2)CCN(Cc2cccc(OC)c2O)CC1 [MMV666109]
[1]; [7]
  percent_inh @ 5 uM: 95%
[1]; [13]
  EC50: 2.29 µM

## C=C(C)CCC(C)N1CCC(N2CCC(C(=O)NCCc3ccccc3)CC2)CC1 (stereo not shown) [MMV666110]
[1]; [10]
  percent_inh @ 5 uM: 96%
[1]; [11]
  EC50: 1.75 µM
[1]; [12]
  EC50: 4.26 µM

## Oc1ccccc1CN1CCC2(CCCN(Cc3ccccc3F)C2)C1 (stereo not shown) [MMV666116]
[1]; [10]
  percent_inh @ 5 uM: 98%
[1]; [11]
  EC50: 0.548 µM
[1]; [12]
  EC50: 0.679 µM

## CC(C)(C)c1ccc(C(=O)Nc2c3c(nn2-c2cccc(Cl)c2)CSC3)cc1 [MMV666123]
[1]; [7]
  percent_inh @ 5 uM: 93%
[1]; [13]
  EC50: 15 µM

## CC1=C(CC(=O)c2cccc([N+](=O)[O-])c2)C(=O)c2ccccc2C1=O [MMV666125]
[1]; [7]
  percent_inh @ 5 uM: 95%
[1]; [8]
  EC50: 0.381 µM
[1]; [5]
  EC50: 2.84 µM

## CSC1=NC(=Nc2c(C)cccc2C)C2(CCC(C(C)(C)C)CC2)N1c1ccc(Cl)cc1 (stereo not shown) [MMV666596]
[1]; [3]
  percent_inh @ 5 uM: 96%
[1]; [4]
  EC50: 0.135 µM
[1]; [5]
  EC50: 1.48 µM

## CCCCCCc1cc2cc(-c3nc4ccccc4[nH]3)c(=Nc3ccccc3C)oc2cc1O [MMV666597]
[1]; [6]
  EC50: 2.12 µM

## O=c1nc(C=Cc2ccc(Br)cc2)oc2ccccc12 [MMV666599]
[1]; [7]
  percent_inh @ 5 uM: 94%
[1]; [9]
  EC50: 1.05 µM

## CCOC(=O)c1c(C)n(-c2ccc(Cl)cc2)c2ccc(OC(=O)C=Cc3ccccc3)cc12 [MMV666600]
[1]; [3]
  percent_inh @ 5 uM: 97%
[1]; [4]
  EC50: 0.215 µM
[1]; [9]
  EC50: 0.698 µM

## CCOC(=O)C1=C(c2ccccc2)N=c2sc(=Cc3cc(C)n(-c4ccc(F)cc4)c3C)c(=O)n2C1c1cccc(OC)c1OC (stereo not shown) [MMV666601]
[1]; [3]
  percent_inh @ 5 uM: 94%
[1]; [4]
  EC50: 0.154 µM
[1]; [5]
  EC50: 2.33 µM

## CCOC(=O)C1=C(C)N=c2sc(=Cc3ccccc3O)c(=O)n2C1c1ccc(OC)c2ccccc12 (stereo not shown) [MMV666604]
[1]; [7]
  percent_inh @ 5 uM: 97%
[1]; [8]
  EC50: 1.51 µM
[1]; [9]
  EC50: 1.26 µM

## O=[N+]([O-])c1ccc(C=NNc2nc3ccccc3[nH]2)cc1 [MMV666607]
[1]; [3]
  percent_inh @ 5 uM: 99%
[1]; [4]
  EC50: 0.142 µM
[1]; [5]
  EC50: 0.818 µM
[1]; [9]
  EC50: 0.283 µM

## COc1ccccc1C(=O)ON=C(N)Cc1cccc2ccccc12 [MMV666686]
[1]; [6]
  EC50: 0.352 µM

## COc1cc(C(=O)ON=C(N)Cc2cccc3ccccc23)cc(OC)c1OC [MMV666687]
[1]; [6]
  EC50: 0.28 µM

## Cc1cc(C=C2SC(=Nc3ccccc3)N(C3CCCC3)C2=O)c(C)n1-c1ccc(Cl)cc1 [MMV666688]
[1]; [3]
  percent_inh @ 5 uM: 97%
[1]; [4]
  EC50: 0.263 µM
[1]; [9]
  EC50: 0.876 µM

## COc1ccc(Nc2nc(NN=Cc3ccc(O)cc3)nc(Nc3ccc([N+](=O)[O-])cc3)n2)cc1 [MMV666689]
[1]; [6]
  EC50: 1.12 µM

## COc1ccc(C=C2SC(=N)N(c3ccccc3OC)C2=O)cc1 [MMV666691]
[1]; [3]
  percent_inh @ 5 uM: 97%
[1]; [4]
  EC50: 0.168 µM
[1]; [9]
  EC50: 0.3 µM

## CCCCCCc1cc2cc(-c3csc(C=Cc4ccccc4)n3)c(=O)oc2cc1O [MMV666692]
[1]; [6]
  EC50: 0.97 µM

## COc1cccc(C=Cc2nc(=O)c3ccccc3o2)c1OC [MMV666693]
[1]; [3]
  percent_inh @ 5 uM: 96%
[1]; [4]
  EC50: 0.0238 µM
[1]; [9]
  EC50: 0.0644 µM

## CN(C)c1ccc(N2C(N)=NC(N)=NC2(C)C)cc1 [MMV667487]
[1]; 2 uM, MMV Malaria Box sheet, ref MMV data sheets
  percent_inh @ 2 uM: 95%
[1]; [5]
  EC50: 0.0188 µM
[1]; [13]
  EC50: 0.0728 µM

## COc1ccc(CCn2c(=N)c(C(=O)NCc3cccnc3)cc3c(=O)n4cccc(C)c4nc32)cc1 [MMV667488]
[1]; [6]
  EC50: 1.4 µM

## O=C(Nc1ccc(F)c(-c2nc3ncc(-c4ccccc4)cc3[nH]2)c1)N1CCCC1 [MMV688372]
[2]
  IC50: 0.61 µM
